Assay results published in patent US9975907B2, “Pyrimidinones as PI3K inhibitors” (Incyte Corporation, priority 2009, dated 2018).
Counter-ions that a name gives are not always drawn.

What was measured:
[1] = tested on: Pfeiffer cell line (diffuse large B cell lymphoma); assay: Pfeiffer Cell Proliferation Assay; type: cell-based; conditions: 3-4 days, [3H]-thymidine incorporation
Method: Pfeiffer cell line (diffuse large B cell lymphoma) was purchased from ATCC (Manassas, Va.) and maintained in the culture medium recommended (RPMI and 10% FBS). To measure the anti-proliferation activity of the PI3Kδ submittals, the Pfeiffer cells were plated with the culture medium (2×10^3 cells/well/per 200 μl) into 96-well ultra-low binding plates (Corning, Corning, N.Y.), in the presence or absence of a concentration range of test compounds. After 3-4 days, [^3H]-thymidine (1 μCi/well) (PerkinElmer, Boston, Mass.) in PBS was then added to the cell culture for an additional 12 hrs before the incorporated radioactivity was separated by filtration with water through GF/B filters (Packard Bioscience, Meriden, Conn.) and measured by liquid scintillation counting with a TopCount (Packard Bioscience). See Table 3 for data related to compounds of the invention.

PI3Kγ = PI3Kγ (Homo sapiens (Human), UniProt P48736); assay: PI3K Enzyme Assay A2 ([γ-33P]ATP filter plate), PI3Kγ; type: biochemical; conditions: Assay A2, 1000 μM ATP
Sequence of PI3Kγ (P48736 whole entry, species assumed, canonical isoform): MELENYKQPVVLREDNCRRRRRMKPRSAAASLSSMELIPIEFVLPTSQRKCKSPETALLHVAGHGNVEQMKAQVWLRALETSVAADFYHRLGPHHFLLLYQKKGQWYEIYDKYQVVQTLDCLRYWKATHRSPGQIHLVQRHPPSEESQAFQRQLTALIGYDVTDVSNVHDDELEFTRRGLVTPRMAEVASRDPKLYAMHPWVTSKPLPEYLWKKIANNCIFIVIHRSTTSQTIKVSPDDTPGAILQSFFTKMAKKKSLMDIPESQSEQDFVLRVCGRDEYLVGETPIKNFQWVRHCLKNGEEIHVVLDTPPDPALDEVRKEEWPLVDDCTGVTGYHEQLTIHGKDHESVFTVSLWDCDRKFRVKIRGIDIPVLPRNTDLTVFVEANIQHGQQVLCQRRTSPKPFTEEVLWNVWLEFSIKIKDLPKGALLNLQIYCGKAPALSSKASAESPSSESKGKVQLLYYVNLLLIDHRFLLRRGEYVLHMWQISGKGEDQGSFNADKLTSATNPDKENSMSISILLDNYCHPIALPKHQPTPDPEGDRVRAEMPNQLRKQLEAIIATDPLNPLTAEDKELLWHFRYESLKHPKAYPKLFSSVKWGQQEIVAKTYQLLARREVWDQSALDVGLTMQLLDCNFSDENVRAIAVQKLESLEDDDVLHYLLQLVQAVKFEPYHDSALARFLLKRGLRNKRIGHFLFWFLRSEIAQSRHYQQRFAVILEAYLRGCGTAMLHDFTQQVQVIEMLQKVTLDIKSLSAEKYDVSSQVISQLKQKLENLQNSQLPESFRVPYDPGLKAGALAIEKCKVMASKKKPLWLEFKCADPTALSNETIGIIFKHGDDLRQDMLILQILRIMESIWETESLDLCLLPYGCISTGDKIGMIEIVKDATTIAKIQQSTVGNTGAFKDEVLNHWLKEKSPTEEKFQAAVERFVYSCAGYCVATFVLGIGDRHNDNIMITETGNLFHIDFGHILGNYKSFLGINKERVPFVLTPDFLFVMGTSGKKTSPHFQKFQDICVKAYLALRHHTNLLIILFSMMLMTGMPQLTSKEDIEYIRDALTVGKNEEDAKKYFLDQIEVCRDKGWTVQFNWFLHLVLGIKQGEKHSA
Method: Materials: Lipid kinase substrate, phosphoinositol-4,5-bisphosphate (PIP2), was purchased from Echelon Biosciences (Salt Lake City, Utah). PI3K isoforms α, β, δ and γ were purchased from Millipore (Bedford, Mass.). ATP, MgCh, DTT, EDTA, MOPS and CHAPS were purchased from Sigma-Aldrich (St. Louis, Mo.).
(§1) The kinase reaction was conducted in clear-bottom 96-well plate from Thermo Fisher Scientific in a final volume of 24 μL. Inhibitors were first diluted serially in DMSO and added to the plate wells before the addition of other reaction components. The final concentration of DMSO in the assay was 0.5%. The PI3K assays were carried out at room temperature in 20 mM MOPS, pH 6.7, 10 mM MgCl2, 5 mM DTT and CHAPS 0.03%. The reaction mixture was prepared containing 50 μM PIP2, kinase and varying concentration of inhibitors. Reactions were initiated by the addition of ATP containing 2.2 μCi [γ-^33P]ATP to a final concentration of 1000 μM. The final concentration of PI3K isoforms α, β, δ and γ in the assay were 1.3, 9.4, 2.9 and 10.8 nM respectively. Reactions were incubated for 180 min and terminated by the addition of 100 μL of 1 M potassium phosphate pH 8.0, 30 mM EDTA quench buffer. A 100 μL aliquot of the reaction solution was then transferred to 96-well Millipore MultiScreen IP 0.45 μm PVDF filter plate (The filter plate was prewetted with 200 μL 100% ethanol, distilled water, and 1 M potassium phosphate pH 8.0, respectively). The filter plate was aspirated on a Millipore Manifold under vacuum and washed with 18×200 μL wash buffer containing 1 M potassium phosphate pH 8.0 and 1 mM ATP. After drying by aspiration and blotting, the plate was air dried in an incubator at 37° C. overnight. Packard TopCount adapter (Millipore) was then attached to the plate followed with addition of 120 μL Microscint 20 scintillation cocktail (Perkin Elmer) in each well. After the plate sealing, the radioactivity of the product was determined by scintillation counting on Topcount (Perkin-Elmer). IC50 determination was performed by fitting the curve of percent control activity versus the log of the inhibitor concentration using the GraphPad Prism 3.0 software. […] See Table 1 for data related to compounds of the invention.

PI3Kδ (p110δ/p85α) [2] = molecular target: T1, PI3Kδ (p110δ/p85α) (Homo sapiens (Human), UniProt O00329); assay: PI3Kδ Scintillation Proximity Assay (Assay A3); type: biochemical; conditions: column b, Assay A3 (SPA), 20 μM ATP
T1 sequence (O00329 whole entry, species assumed): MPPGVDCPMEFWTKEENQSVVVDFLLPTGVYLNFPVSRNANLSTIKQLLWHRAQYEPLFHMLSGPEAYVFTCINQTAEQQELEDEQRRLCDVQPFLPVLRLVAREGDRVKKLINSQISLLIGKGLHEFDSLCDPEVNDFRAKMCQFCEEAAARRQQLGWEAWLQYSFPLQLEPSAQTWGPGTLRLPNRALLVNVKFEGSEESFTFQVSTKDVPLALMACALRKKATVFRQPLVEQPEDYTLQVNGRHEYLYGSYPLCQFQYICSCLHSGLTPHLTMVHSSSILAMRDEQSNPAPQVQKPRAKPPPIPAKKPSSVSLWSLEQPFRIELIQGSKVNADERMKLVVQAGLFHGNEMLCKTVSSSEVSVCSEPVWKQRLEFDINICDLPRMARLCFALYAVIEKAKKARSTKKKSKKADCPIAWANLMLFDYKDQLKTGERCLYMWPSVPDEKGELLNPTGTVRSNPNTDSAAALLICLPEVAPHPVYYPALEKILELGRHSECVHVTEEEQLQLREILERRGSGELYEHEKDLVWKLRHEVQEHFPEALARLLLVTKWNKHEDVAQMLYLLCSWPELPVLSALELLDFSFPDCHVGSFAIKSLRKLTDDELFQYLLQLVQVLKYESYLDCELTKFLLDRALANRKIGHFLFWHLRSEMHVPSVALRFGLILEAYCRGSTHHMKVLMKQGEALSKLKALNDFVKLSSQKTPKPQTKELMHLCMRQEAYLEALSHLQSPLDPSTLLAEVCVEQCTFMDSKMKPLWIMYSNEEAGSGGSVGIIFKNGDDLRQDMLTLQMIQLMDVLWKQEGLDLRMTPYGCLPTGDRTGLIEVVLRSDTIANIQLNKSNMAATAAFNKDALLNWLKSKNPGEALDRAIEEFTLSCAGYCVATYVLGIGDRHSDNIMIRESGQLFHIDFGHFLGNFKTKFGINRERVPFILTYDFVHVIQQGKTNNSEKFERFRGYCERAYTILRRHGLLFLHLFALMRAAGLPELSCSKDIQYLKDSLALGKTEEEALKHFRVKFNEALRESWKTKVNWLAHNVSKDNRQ
T1 sequence (P27986 whole entry partner, species assumed): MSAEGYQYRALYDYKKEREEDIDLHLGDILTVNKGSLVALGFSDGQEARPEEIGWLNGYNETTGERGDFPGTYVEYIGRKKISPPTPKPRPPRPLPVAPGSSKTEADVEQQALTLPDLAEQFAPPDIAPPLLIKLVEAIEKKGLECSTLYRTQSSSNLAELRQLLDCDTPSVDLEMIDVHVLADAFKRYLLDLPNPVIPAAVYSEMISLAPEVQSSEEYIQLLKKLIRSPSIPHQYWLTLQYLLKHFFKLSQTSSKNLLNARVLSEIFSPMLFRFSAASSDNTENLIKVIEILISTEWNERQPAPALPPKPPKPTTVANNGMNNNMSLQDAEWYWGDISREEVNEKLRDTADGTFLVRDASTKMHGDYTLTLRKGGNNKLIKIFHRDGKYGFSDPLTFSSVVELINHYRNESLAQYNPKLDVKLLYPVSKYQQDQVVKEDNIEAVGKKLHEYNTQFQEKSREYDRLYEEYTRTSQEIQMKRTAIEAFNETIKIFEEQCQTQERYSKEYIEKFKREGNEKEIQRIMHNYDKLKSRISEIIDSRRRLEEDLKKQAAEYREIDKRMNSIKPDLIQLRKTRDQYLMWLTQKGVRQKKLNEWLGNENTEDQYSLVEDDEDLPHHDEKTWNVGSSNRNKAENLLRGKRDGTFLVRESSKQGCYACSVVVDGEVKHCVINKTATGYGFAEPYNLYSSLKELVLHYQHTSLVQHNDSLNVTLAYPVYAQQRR
Summary of the method: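 Radiometric SPA: 33P-labelled […] bound to WGA beads after EDTA/ATP quench, counted by scintillation, fitted against log inhibitor for IC50. Reaction: 4 nM PI3Kδ (p110δ/p85α), 20 μM ATP, 20 μM PIP2, pH 6.7 MOPS buffer with MgCl2, DTT, CHAPS, 0.5% DMSO, room temperature, 210 min.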

PI3Kβ = PI3Kβ (Homo sapiens (Human), UniProt P42338); assay: PI3K Enzyme Assay A2 ([γ-33P]ATP filter plate), PI3Kβ; type: biochemical; conditions: Assay A2, 1000 μM ATP
Sequence of PI3Kβ (P42338 whole entry, species assumed, canonical isoform): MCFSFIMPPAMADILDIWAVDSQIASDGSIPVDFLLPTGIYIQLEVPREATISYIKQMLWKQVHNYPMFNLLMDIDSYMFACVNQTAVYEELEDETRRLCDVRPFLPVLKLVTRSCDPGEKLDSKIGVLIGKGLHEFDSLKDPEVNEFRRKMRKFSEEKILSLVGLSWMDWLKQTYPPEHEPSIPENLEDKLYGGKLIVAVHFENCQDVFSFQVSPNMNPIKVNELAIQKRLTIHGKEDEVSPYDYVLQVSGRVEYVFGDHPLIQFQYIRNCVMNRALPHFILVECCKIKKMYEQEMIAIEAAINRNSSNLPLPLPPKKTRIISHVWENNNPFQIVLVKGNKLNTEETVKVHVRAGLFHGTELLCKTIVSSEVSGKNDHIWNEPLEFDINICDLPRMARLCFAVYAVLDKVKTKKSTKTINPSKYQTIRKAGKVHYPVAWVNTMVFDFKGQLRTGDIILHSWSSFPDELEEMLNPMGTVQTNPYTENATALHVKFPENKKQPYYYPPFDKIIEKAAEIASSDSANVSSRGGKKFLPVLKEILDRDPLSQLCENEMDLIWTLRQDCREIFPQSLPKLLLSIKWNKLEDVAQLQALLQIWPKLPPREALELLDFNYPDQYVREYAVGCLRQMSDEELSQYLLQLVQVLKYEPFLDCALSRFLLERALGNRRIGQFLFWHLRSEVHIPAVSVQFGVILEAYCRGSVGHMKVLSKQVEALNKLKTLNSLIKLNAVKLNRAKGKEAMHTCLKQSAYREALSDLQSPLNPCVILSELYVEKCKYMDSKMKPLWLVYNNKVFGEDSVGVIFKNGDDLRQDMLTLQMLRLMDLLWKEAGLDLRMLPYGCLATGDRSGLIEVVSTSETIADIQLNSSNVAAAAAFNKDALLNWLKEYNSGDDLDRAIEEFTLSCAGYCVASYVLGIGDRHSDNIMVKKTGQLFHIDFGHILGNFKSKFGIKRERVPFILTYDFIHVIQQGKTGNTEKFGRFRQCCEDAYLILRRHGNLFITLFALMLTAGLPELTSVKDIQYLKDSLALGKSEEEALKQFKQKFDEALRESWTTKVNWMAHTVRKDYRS
Sequence of PI3Kβ (P27986 whole entry partner, species assumed, canonical isoform): as the sequence (P27986 whole entry partner, species assumed) above
Method: as §1, with “Materials: Lipid kinase substrate, phosphoinositol-4,5-bisphosphate (PIP2), was purchased from Echelon Biosciences (Salt Lake City, Utah). PI3K isoforms α, β, δ and γ were purchased from Millipore (Bedford, Mass.). ATP, MgCh, DTT, EDTA, MOPS and CHAPS were purchased from Sigma-Aldrich (St. Louis, Mo.). The kinase” for “The kinase”, “1000 μM. […] Reactions were” for “1000 μM. The final concentration of PI3K isoforms α, β, δ and γ in the assay were 1.3, 9.4, 2.9 and 10.8 nM respectively. Reactions were”

PI3Kδ (p110δ/p85α) [3] = molecular target: T1, PI3Kδ (p110δ/p85α); assay: AlphaScreen Assay for PI3Kδ (Assay A1); type: biochemical; conditions: column a, 20 μM ATP
Description: PI3-Kinase luminescent assay kit including lipid kinase substrate, D-myo-phosphatidylinositol 4,5-bisphosphate (PtdIns(4,5)P2)D (+)-sn-1,2-di-O-octanoylglyceryl, 3-O-phospho linked (PIP2), biotinylated I(1,3,4,5)P4, PI(3,4,5)P3 Detector Protein, was purchased from Echelon Biosciences (Salt Lake City, Utah). AlphaScreen™ GST Detection Kit including donor and acceptor beads was purchased from PerkinElmer Life Sciences (Waltham, Mass.). PI3Kδ (p110δ/p85α) was purchased from Millipore (Bedford, Mass.). ATP, MgCb, DTT, EDTA, HEPES and CHAPS were purchased from Sigma-Aldrich (St. Louis, Mo.).
AlphaScreen™ Assay for PI3Kδ
The kinase reaction was conducted in 384-well REMP plate from Thermo Fisher Scientific in a final volume of 40 μL. Inhibitors were first diluted serially in DMSO and added to the plate wells before the addition of other reaction components. The final concentration of DMSO in the assay was 2%. The PI3K assays were carried out at room temperature in 50 mM HEPES, pH 7.4, 5 mM MgCl2, 50 mM NaCl, 5 mM DTT and CHAPS 0.04%. Reactions were initiated by the addition of ATP, the final reaction mixture consisted of 20 μM PIP2, 20 μM ATP, 1.2 nM PI3Kδ were incubated for 20 min. 10 μL of reaction mixture was then transferred to 5 μL 50 nM biotinylated I(1,3,4,5)P4 in quench buffer: 50 mM HEPES pH 7.4, 150 mM NaCl, 10 mM EDTA, 5 mM DTT, 0.1% Tween-20, followed with the addition of 10 μL AlphaScreen™ donor and acceptor beads suspended in quench buffer containing 25 nM PI(3,4,5)P3 detector protein. The final concentration of both donor and acceptor beads is […]. After plate sealing, the plate was incubated in a dark location at room temperature for 2 hours. The activity of the product was determined on Fusion-alpha microplate reader (Perkin-Elmer). IC50 determination was performed by fitting the curve of percent control activity versus the log of the inhibitor concentration using the GraphPad Prism 3.0 software.

[4] = tested on: purified B cells from human PBMC; assay: B Cell Proliferation Assay; type: cell-based; conditions: anti-human IgM stimulated, three days, [3H]-thymidine incorporation
Method: To acquire B cells, human PBMC were isolated from the peripheral blood of normal, drug free donors by standard density gradient centrifugation on Ficoll-Hypague (GE Healthcare, Piscataway, N.J.) and incubated with anti-CD19 microbeads (Miltenyi Biotech, Auburn, Calif.). The B cells were then purified by positive immunosorting using an autoMacs (Miltenyi Biotech) according to the manufacturer's instruction.
The purified B cells (2×10^5/well/200 μL) were cultured in 96-well ultra-low binding plates (Corning, Corning, N.Y.) in RPMI1640, 10% FBS and goat F(ab′)2 anti-human IgM (10 μg/ml) (Invitrogen, Carlsbad, Calif.), in the presence of different amount of test compounds, for three days. [^3H]-thymidine (1 μCi/well) (PerkinElmer, Boston, Mass.) in PBS was then added to the B cell cultures for an additional 12 hrs before the incorporated radioactivity was separated by filtration with water through GF/B filters (Packard Bioscience, Meriden, Conn.) and measured by liquid scintillation counting with a TopCount (Packard Bioscience). Compounds having and IC^50 value of 10 μM or less are considered active. See Table 2 for data related to compounds of the invention.

Structure (SMILES) | IC50 (PI3Kγ) [nM] | IC50 (PI3Kδ (p110δ/p85α) [2]) [nM] | IC50 ([1]; trifluoroacetic acid salt) [nM] | also measured
Cc1csc2nc(C(C)Nc3nc(N)nc4[nH]cnc34)c(-c3cc(F)cc(F)c3)c(=O)n12 (single isomer, unassigned) [Example 23, 7-{1-[(2-amino-9H-purin-6-yl)amino]ethyl}-6-(3,5-difluorophenyl)-3-methyl-5H-[1,3]thiazolo[3,2-a]pyrimidin-5-one] | > 500 | < 50 |  | IC50 ([1]; Homo sapiens, Pfeiffer): < 50 nM
Cc1cccc2nc(C(C)Nc3nc(N)nc4[nH]cnc34)c(-c3cccc(F)c3)c(=O)n12 (single isomer, unassigned) [Example 74, 2-{1-[(2-Amino-9H-purin-6-yl)amino]ethyl}-3-(3-fluorophenyl)-6-methyl-4H-pyrido[1,2-a]pyrimidin-4-one trifluoroacetic acid salt] |  | < 50 | < 50 | 
Cc1cccc2nc(C(C)Nc3ncnc4[nH]cnc34)c(-c3cccc(F)c3)c(=O)n12 (single isomer, unassigned) [Example 71, 3-(3-Fluorophenyl)-6-methyl-2-[1-(9H-purin-6-ylamino)ethyl]-4H-pyrido[1,2-a]pyrimidin-4-one trifluoroacetic acid salt] | > 500 | < 50 | < 50 | 
Cc1cccc2nc(C(C)Nc3nc(N)nc4[nH]cnc34)c(-c3cccc(F)c3)c(=O)n12 (single isomer, unassigned) [Example 75, 2-{1-[(2-Amino-9H-purin-6-yl)amino]ethyl}-3-(3-fluorophenyl)-6-methyl-4H-pyrido[1,2-a]pyrimidin-4-one trifluoroacetic acid salt] |  | > 500 | 500 to 1000 | 
Cc1csc2nc([C@H](C)Nc3ncnc4[nH]cnc34)c(-c3cccc(F)c3)c(=O)n12 [Example 15, (S)-7-(1-(9H-purin-6-ylamino)ethyl)-6-(3-fluorophenyl)-3-methyl-5H-thiazolo[3,2-a]pyrimidin-5-one] | > 500 |  |  | IC50 (PI3Kβ): > 500 nM
Cc1csc2nc(C(C)Nc3ncnc4[nH]cnc34)c(-c3cccc(F)c3)c(=O)n12 (centres unmarked) [Example 10, 6-(3-fluorophenyl)-3-methyl-7-[1-(9H-purin-6-ylamino)ethyl]-5H-[1,3]thiazolo[3,2-a]pyrimidin-5-one] | > 500 |  |  | IC50 (PI3Kβ): > 500 nM
Cc1csc2nc(C(C)Nc3ncnc4[nH]cnc34)c(-c3cc(F)cc(F)c3)c(=O)n12 (centres unmarked) [Example 12, 6-(3,5-difluorophenyl)-3-methyl-7-[1-(9H-purin-6-ylamino)ethyl]-5H-[1,3]thiazolo[3,2-a]pyrimidin-5-one] |  | < 50 |  | IC50 (PI3Kδ (p110δ/p85α) [3]): < 50 nM; IC50 [4]: < 50 nM
